From US20190269705A1, “METHODS AND MATERIALS FOR TREATING GRAFT VERSUS HOST DISEASE” (Regents of the University of Minnesota, priority 2017, published 2019)
Entries after “also recorded” stand apart in the source; their conditions may differ.

Key:
stimulated T cells = test: Oxygen Consumption Rate (Seahorse) of stimulated CD4 T cells; type: cell-based, mouse; details: CD4 cells stimulated on CD3/CD28; 1 μM CB839, 5 μM UK5099 injected separately or in combination
Method: (§1) Experiments were carried out on Agilent Seahorse XF96 bioanalyzer (Agilent). Briefly, wild type CD4+ cells were isolated as previous and activated for 3 days on CD3/CD28 as previously described, or skewed to Th1 and Th17 subsets as described above. T cells were spun onto XF96 Cell-Tak (BD Bioscience, Cat #: 354240) coated plates and rested in Seahorse XF RPMI 1640 media supplemented with glutamine, sodium pyruvate, and glucose. For immediate metabolic response, CB839 and UK5099 were injected separately or in combination, and OCR and ECAR measured.
(§2) Experiments were carried out on Agilent Seahorse XF96 bioanalyzer (Agilent). Briefly, wild type CD4+ cells were isolated as previous and activated for 3 days on αCD3/CD28 coated plates as previously described, or skewed to Th1 and Th17 subsets as described above. T cells were isolated and spun onto XF96 Cell-Tak (BD Bioscience, Cat #: 354240) coated plates and rested in Seahorse XF RPMI 1640 media supplemented with glutamine, sodium pyruvate, and glucose. For immediate metabolic response, 1 μM CB839 and 5 μM UK5099 (Cat #: PZ0160-5MG) were injected separately or in combination, and OCR and ECAR measured. For activation response, 1 uM CB839 was injected into IL-7 maintained naïve CD4+ T cells in seahorse medium and allowed to incubate for 20 minutes, followed by soluble αCD3/CD28 injection.

Th1 cells [1] = test: 3H-2-deoxyglucose uptake and ECAR, Th1; type: cell-based, mouse
Method: Glucose uptake assays were performed as described elsewhere (see, e.g., Macintyre et al., 2014 Cell Metab. 20(1):61-72). Naïve CD4+ T cells were differentiated into Th1 and Th17 cells, in triplicate, in the presence or absence of CB839 over 5 days and spun down after reisolation using CD4 kit as previously described. Cells were washed 2× in PBS, counted, then rested in 1 mL Kreb's Ringers HEPES (KRH) for 10 minutes. Cells were spun and resuspended to 5×10^5 cells/50 uL KRH for glucose uptake assay. Briefly, cells were […]. Cells incubated for 10 minutes at 37° C. Immediately after incubation, reaction was quenched with 200 μM phloretin (Calbiochem, Cat #: 524488). Cells were spun, washed, and then resuspended in scint fluid for counting on Beckman-Coulter scintillation counter. Pathway analysis of altered metabolites was performed using Metaboanalyst 3.0 (metaboanalyst. ca/faces/home.xhtml).
as §1
Glucose uptake assays were performed as previously described (Macintyre et al.,2014). Naïve CD4+ T cells were differentiated into Th1 and Th17 cells, in triplicate, in the presence or absence of CB839 over five days and spun down after reisolation using CD4 kit as previously described. At day 3 and 5, cells were removed, washed twice in PBS, counted, then rested in 1 mL Kreb's Ringers HEPES (KRH) for at least 10 minutes. Cells were spun and resuspended to 5×10^5 cells/50 μL KRH for glucose uptake assay. Briefly, 3H-2-deoxyglucose was suspended in KRH bubble layered in oil, and cells were added to this bubble. Cells were incubated for 10 minutes at 37° C. Immediately after incubation, reaction was quenched with 200 μM phloretin (Calbiochem, Cat #: 524488). Cells were spun, washed, and then resuspended in scintilation fluid for counting on Beckman-Coulter scintillation counter (3H, 1 min/sample read).
as §2

Th1 cells [2] = test: ATAC-Seq chromatin accessibility, Th1; type: cell-based, mouse; details: Th1, 500 nM CB839, day 5
Method: ATAC-Seq: Crude nuclei pellets were isolated as described elsewhere (see, e.g., Buenrostro et al., 2013 Nat Meth. 10(12):1213-1218) with modifications. Briefly, naïve CD4 T cells were skewed to Th1 and Th17 subsets in vitro with vehicle or in the presence of 500 nM CB839. At Day 5, T cells were re-isolated for CD4+ cells using Miltenyi CD4+ negative selection kit (Cat #: 130-104-454). 1×10^5 cells were removed for nuclei extraction in ATAC-Seq lysing buffer. Cells were exposed to Tn5+ adaptor proteins from Nextera DNA for 30 min at 37° C. and immediately placed on ice. Transposed eluate was amplified via PCR using Nextera DNA preparation kit (Illumina, Cat #: FC-121-1030), NEBNext High-fidelity 2× PCR mix (New England Labs, Cat #: M0541), and multiplexed (Illumina, Cat #: FC-121-1011). Samples were purified using Zymo DNA cleanup kit (Cat #: D4011). QC of samples was run on bioanalyzer before being sent for sequencing. RNA-Seq: Th1 and Th17 cells skewed with or without CB839 were isolated as previously described and total RNA extracted (Qiagen RNEasy Mini kit, Cat #: 74104). RNA was sent to VANTAGE core at Vanderbilt University and sequenced on HiSeq 2500. n=3 for each sample was analyzed. Samples were analyzed using the R program DESeq2. GSEA was performed using MSigDB. […]

Th1 cells [3] = test: CD4 T cells in Th1 skewing conditions, flow cytometry
[4] = Th1, day 5, listed as GLS inhibitor

O=C(Cc1cccc(OC(F)(F)F)c1)Nc1ccc(CCCCc2nnc(NC(=O)Cc3ccccn3)s2)nn1 [CB839]
oxygen consumption (T cell respiration) (stimulated T cells): neither UK5099 nor CB839 were sufficient on their own to reduce T cell respiration; also recorded: neither UK5099 nor CB839 were sufficient to reduce T cell respiration alone
glucose uptake (Th1 cells [1]; Th1, day 5): increased
media acidification (ECAR, glycolytic flux) (Th1 cells [1]; Th1, day 5): increased
glucose uptake (Th1 cells [1]; [4]): increased levels of glucose uptake and glycolytic flux
media acidification (ECAR, glycolytic flux) (Th1 cells [1]; [4]): increased levels of glucose uptake and glycolytic flux
glucose uptake (Th1 cells [1]; Th1, day three): reduced
genes with regions of altered chromatin accessibility (Th1 cells [2]): more genes with regions of increased accessibility than genes with decreased accessibility
Myc protein (Th1 cells [3]; Th1): modestly increased Myc
H3K27 tri-methylation, initially (Th1 cells [3]; Th1, Day 3): increased H3K27 tri-methylation
proliferation (Th1 cells [3]; Th1, after three days in culture): impaired proliferation
ROS (DCFDA) (Th1 cells [3]; Th1, day 5): ROS increased
expression of KLRG1 and PD1 (Th1 cells [3]; Th1, day 5): increased expression of KLRG1 and PD1
global H3K27 trimethylation (Th1 cells [3]; Th1, day 5, normalized to total H3): decreased
phospho-S6 (Th1 cells [3]; Th1, day 5, with IL2): increased phosphor-S6; also recorded: increased phospho-S6
ROS (DCFDA) (Th1 cells [3]; Th1, day 5, listed as CD839): increased ROS
global H3K4 trimethylation (Th1 cells [3]; Th1, day five): decreased; also recorded: reduced
proliferation (Th1 cells [3]; Th1, day five): partially recovered proliferation by day five
total rRNA levels per cell (Th1 cells [3]; Th1, day five): increased
H3K27 methylation in the absence of IL2 (Th1 cells [3]; Th1 skewing conditions, no IL2): hypermethylated H3K27
Th1 cytokine production and differentiation (Th1 cells [3]; Th1 skewing, 5 days, CB839 vs vehicle): increased; also recorded: appeared to increase Th1 cytokine secretion
induction of Treg (Foxp3) (Th1 cells [3]; under Th1 conditions): failed to do so
